Measured values: patent US12257284B2, “Lantibiotics, lantibiotic-producing bacteria, compositions and methods of production and use thereof” (MEMORIAL SLOAN-KETTERING CANCER CENTER, priority 2017, dated 2025)
Non-standard residues stand in square brackets, D forms with d. No end group written: not given here. Dhb = C/C=C(\N)C(=O)O; Dha = C=C(N)C(=O)O

Tests used:
[1] = system: VRE; assay: VRE cultured with ammonium sulfate precipitated, dialyzed B. producta protein, VRE CFU quantitated; format: cell-based, vancomycin-resistant Enterococcus
Method: 10^7 CFU/mL B. producta was cultured for 24 hours anaerobically at 37° C. in BHIS. The culture supernatant was filtered through a 0.22 μm filter. Ammonium sulfate was added to the filtered culture supernatant at varying concentrations to precipitate proteins. Precipitated proteins were resolubilized in phosphate buffered saline (PBS) (2 mg/mL) and dialyzed. The dialyzed protein was returned to the original culture volume with fresh culture medium and samples were innoculated with 10^3 CFU/mL VRE and cultured for 6 or 24 hours anaerobically at 37° C. […] 10^7 CFU/mL B. producta was cultured for 24 hours anaerobically at 37° C. in BHIS. The culture supernatant was filtered through a 0.22 μm filter. Ammonium sulfate was added to the filtered culture supernatant at varying concentrations to precipitate proteins. Precipitated proteins were resolubilized in phosphate buffered saline (PBS) (2 mg/mL) and dialyzed (the dialyzed protein was returned to the original culture volume with PBS) and samples were innoculated with 10^3 CFU/mL VRE and cultured for 6 or 24 hours anaerobically at 37° C.
10^7 CFU/mL B. producta was cultured for 24 hours anaerobically at 37° C. in BHIS. The culture supernatant was filtered through a 0.22 μm filter. 45% ammonium sulfate was added to the filtered culture supernatant to precipitate proteins. The precipitate was resolubilized in PBS (2 mg/mL), then dialyzed. The dialyzed protein was incubated with Proteinase K (1 mg/mL) for 1 hour at 37° C. These conditions are sufficient to completely digest BSA at a concentration of 100 μg/m, as evidenced by the […] in gel electrophoresis. The dialyzed protein/proteinase K solution was returned to its original volume in fresh culture medium and inoculated with 10^3 CFU/mL VRE the cultured for 6 or 24 hours anaerobically at 37° C.
10^7 CFU/mL B. producta was cultured for 24 hours anaerobically at 37° C. in BHIS. The culture supernatant was filtered through a 0.22 μm filter. 45% ammonium sulfate was added to the filtered culture supernatant to precipitate proteins. The precipitate was resolubilized in PBS (2 mg/mL), then dialyzed. The dialyzed protein was incubated at 100° C. for ten minutes. The heated, dialyzed protein solution was returned to its original volume in fresh culture medium and inoculated with 10^3 CFU/mL VRE the cultured for 6 or 24 hours anaerobically at 37° C.
10^7 CFU/mL B. producta was cultured for 24 hours anaerobically at 37° C. in BHIS. The culture supernatant was filtered through a 0.22 μm filter. Ammonium sulfate was added to the filtered culture supernatant at varying concentrations to precipitate proteins. […] Fecal pellets were collected 0, 5, 10 days after bacterial consortia transplant, and VRE was quantitated.

[2] = system: VRE; assay: VRE cultured in cecal supernatant of mice colonized with B. producta strains; format: cell-based, vancomycin-resistant Enterococcus; conditions: cecal content 7 days post-transplant, 100 mg/mL, filtered; VRE 10^3 CFU/mL, 6 hours; FIG. 20
Method: 6-8 week old, C57BL/6 mice were administered ampicillin (0.5 g/L) in the drinking water for 5 days, and subsequently orally gavaged with a bacterial consortia (10^7 CFU per bacterial isolate). Bacterial consortia for oral gavage were prepared by individually culturing the B. producta Caballero strain, or the B. producta Honda strain, on Columbia base medium (agar, peptones, cornstarch) plus 5% sheep blood agar plates, anaerobically at 37° C. overnight. Each isolate was subsequently harvested and resuspended in reduced phosphate buffered saline (PBS) to a final concentration of 10^8 CFU/mL. 7 days post-transplant, cecal content was harvested and resuspended in PBS to a final concentration of 100 mg/mL. Cecal supernatant was collected by filtration through a 0.22 μm filter. VRE inoculated at 10^3 CFU/mL in the cecal supernatant and incubated at 37° C. aerobically. VRE was cultured for 6 hours and quantitated.

[3] = system: VRE; assay: Microscopy of VRE cultured with B. producta factor; format: cell-based, vancomycin-resistant Enterococcus; conditions: 10^8 CFU/mL VRE, 24 hours
Method: 10^7 CFU/mL B. producta was cultured for 24 hours anaerobically at 37° C. in BHIS. The culture supernatant was filtered through a 0.22 μm filter. Ammonium sulfate was added to the filtered culture supernatant at varying concentrations to precipitate proteins. Precipitated proteins were resolubilized in phosphate buffered saline (PBS) (2 mg/mL) and dialyzed. The dialyzed protein was returned to the original culture volume with supplemented PBS (the dialyzed protein was returned to the original culture volume with PBS) and samples were innoculated with 10^8 CFU/mL VRE and cultured for 24 hours anaerobically at 37° C. Bacteria were fixed onto slides for microscopy.

[4] = system: B. producta; assay: Spectrum: bacterial survival with B. producta culture extract; format: cell-based; conditions: greater than 100 kDa concentrated supernatant; 6, 24 or 48 hours; FIG. 34
Method: (§1) 10^7 CFU/mL B. producta was cultured for 0, 6, 24 hours in BHIS anaerobically at 37° C. The culture supernatant at 0, 6, and 24 hours was filtered through a 0.22 μm filter, then concentrated by ultrafiltration with a molecular weight cut off greater than 100 kDa. The concentrated culture supernatant was then diluted to the original volume with fresh BHIS culture medium. 10^3 CFU/mL VRE, B. producta, C. bolteae, P. distasonis, B. sartorii, C. difficile, K pneumoniae, E. coli, S. aureus, E. faecalis, E. faecium, or L monocytogenes were cultured for 6, 24, or 48 hours anaerobically at 37° C.

[5] = system: B. sartorii; assay: as above; format: cell-based; conditions: greater than 100 kDa concentrated supernatant; 6, 24 or 48 hours; FIG. 34
Method: as §1

[6] = system: C. difficile; assay: as above; format: cell-based; conditions: greater than 100 kDa concentrated supernatant; 6, 24 or 48 hours; FIG. 34
Method: as §1

[7] = system: E. coli; assay: as above; format: cell-based; conditions: greater than 100 kDa concentrated supernatant; 6, 24 or 48 hours; FIG. 34
Method: as §1

[8] = system: E. faecalis; assay: as above; format: cell-based; conditions: greater than 100 kDa concentrated supernatant; 6, 24 or 48 hours; FIG. 34
Method: as §1

[9] = system: E. faecium; assay: as above; format: cell-based; conditions: greater than 100 kDa concentrated supernatant; 6, 24 or 48 hours; FIG. 34
Method: as §1

[10] = system: K. pneumoniae; assay: as above; format: cell-based; conditions: greater than 100 kDa concentrated supernatant; 6, 24 or 48 hours; FIG. 34
Method: as §1

[11] = system: L. monocytogenes; assay: as above; format: cell-based; conditions: greater than 100 kDa concentrated supernatant; 6, 24 or 48 hours; FIG. 34
Method: as §1

[12] = system: P. distasonis; assay: as above; format: cell-based; conditions: greater than 100 kDa concentrated supernatant; 6, 24 or 48 hours; FIG. 34
Method: as §1

[13] = system: S. aureus; assay: as above; format: cell-based; conditions: greater than 100 kDa concentrated supernatant; 6, 24 or 48 hours; FIG. 34
Method: as §1

[14] = system: gram-positive bacteria; assay: Minimum inhibitory concentration by serial dilution against gram-positive bacterial strains; format: cell-based; conditions: dialyzed protein serially diluted in BHIS, 10^5 CFU/mL bacteria, 24 hours; FIG. 35
Method: 10^7 CFU/mL B. producta Caballero strain or Honda strain was cultured for 24 hours in BHIS anaerobically at 37° C. The culture supernatant was filtered through a 0.22 μm filter. Ammonium sulfate was added to the filtered culture supernatant at varying concentrations to precipitate proteins. Precipitated proteins were resolubilized in water (5 mg/mL) and dialyzed. The dialyzed protein or nisin (1:2) were serially diluted with fresh BHIS across a row of wells in a 96 well plate per gram-positive bacteria strain. 10^5 CFU/mL of various gram-positive bacterial strains indicated in FIG. 35 were cultured for 24 hours anaerobically at 37° C. The minimum inhibitory concentration (highest dilution at which gram-positive bacteria growth was inhibited) was thus identified.

[15] = system: VRE; assay: VRE cultured in filtered culture supernatants or size fractions, VRE CFU quantitated; format: cell-based, vancomycin-resistant Enterococcus; conditions: VRE 6 hours
Method: 10^7 CFU/mL B. producta or C. bolteae±10^3 CFU/mL VRE were cultured in BHIS for 6 hours anaerobically at 37° C. The culture supernatants were filtered through a 0.22 μm filter. 10^3 CFU/mL VRE were cultured in the filtered culture supernatants for 2, 6, or 24 hours anaerobically at 37° C. […] 10^7 CFU/mL B. producta, C. bolteae, P. distasonis, or B. sartorii were cultured in BHI overnight (at least 8 hours) anaerobically at 37° C. The culture supernatants were filtered through a 0.22 μm filter and diluted 1:2 in fresh BHIS. 10^3 CFU/mL VRE were cultured in the filtered culture supernatants for 2, 6, or 24 hours anaerobically at 37° C.
10^7 CFU/mL B. producta was cultured for 0, 6, 24 hours in BHIS anaerobically at 37° C. Culture growth was verified by quantitating B. producta CFU at 6, 24, 48, and 72 hours. […] The culture supernatant at 0, 6, and 24 hours was filtered through a 0.22 μm filter, then concentrated by ultrafiltration with a molecular weight cut off greater than 100 kDa. The concentrated culture supernatant was then diluted to the original volume with fresh BHIS culture medium. Concentrated/diluted medium was inoculated with 10^3 CFU/mL VRE and cultured anaerobically at 37° C. for 6, 24, 48 hours.
10^7 CFU/mL B. producta were cultured for 24 hours anaerobically at 37° C. in BHIS. […]

B. producta factor: VRE-inhibiting factor secreted by B. producta, a lantibiotic according to the disclosure (SEQ. ID. No.: 3) (I[Dhb][Dha]I[Dha]LA[Dhb]PGAK[Dhb]GALMGAV[Dhb]GILM[Dhb]APVQ[Dhb]A[Dhb]AGAQI[Dhb]GK; not fully specified; also: lantibiotic (lanthionine bridges not given here))
Number of VRE (CFU) over time in PBS (bactericidal effect) ([1]; 10^5 CFU/mL VRE, 6-120 hours in PBS, FIG. 18): permanent decline in the number of VRE | VRE inhibition after boiling ([1]; 45% ammonium sulfate precipitate, 100° C. for ten minutes, FIG. 13): able to inhibit VRE | VRE inhibition after Proteinase K digestion ([1]; 45% ammonium sulfate precipitate, Proteinase K 1 mg/mL, 1 hour at 37° C., FIG. 12): able to inhibit VRE | VRE inhibition by ammonium sulfate precipitate ([1]; precipitate resolubilized, dialyzed, returned to volume with PBS, 6 or 24 hours, FIG. 11): inhibited VRE | VRE growth in cecal supernatant of colonized mice [2]: inhibits VRE | Phase contrast microscopy of VRE versus control ([3]; FIG. 21): smaller, less numerous, more frequently in a single coccus arrangement and surrounded by more cellular debris | Fluorescence microscopy of VRE (SYTO9 / propidium iodide) versus control ([3]; FIG. 22): less viable | Gram stain light microscopy of VRE versus control ([3]; FIG. 23): generally lacked purple staining | Inhibition of B. producta (survival relative to negative control extract) [4]: not | Inhibition of B. sartorii (survival relative to negative control extract) [5]: not | Inhibition of C. difficile (survival relative to negative control extract) [6]: not | Inhibition of E. coli (survival relative to negative control extract) [7]: not | Inhibition of E. faecalis (survival relative to negative control extract) [8]: inhibited | Inhibition of E. faecium (survival relative to negative control extract) [9]: inhibited | Inhibition of K. pneumoniae (survival relative to negative control extract) [10]: not | Inhibition of L. monocytogenes (survival relative to negative control extract) [11]: inhibited | Inhibition of P. distasonis (survival relative to negative control extract) [12]: not | Inhibition of S. aureus (survival relative to negative control extract) [13]: inhibited | Inhibition of various gram-positive bacterial strains (minimum inhibitory concentration, highest dilution) [14]: broadly inhibits gram-positive bacteria

nisin
VRE growth (VRE CFU) in filtered culture supernatant or nisin medium ([15]; filtered supernatant, nisin extract powder 1 mg per 1 mL medium, FIG. 31 left panel): inhibited VRE | VRE growth (VRE CFU) with greater than 100 kDa concentrated samples ([15]; samples concentrated by ultrafiltration, cut off greater than 100 kDa, diluted to original volume, FIG. 31 right panel): inhibited VRE
